Patent US20210106566A1, “PHARMACEUTICAL COMPOSITION FOR TREATING AND/OR PREVENTING PERIPHERAL NEUROPATHY OR SPINAL CORD INJURY” (NATIONAL UNIVERSITY CORPORATION NAGOYA UNIVERSITY, priority 2015, published 2021)

Key:
JNK1/2/3 = test: Western blot of JNK1/2/3 phosphorylation in primary motor neurons; format: cell-based, mouse
Description: Zonisamide (0, 10, or 20 μmol/L) was added to primary motor neurons 4 hours after the beginning of culture. The cells were rinsed with a buffer (50 mmol/L HEPES pH 7.0, 150 mmol/L NaCl, 1% glycerol, 1% TritonX-100, 1.5 mmol/L MgCl2, 1 mmol/L EGTA, 100 mmol/L NaF, 10 mmol/L sodium pyrophosphate, […], 1 mmol/L PMSF, and 1 mmol/L sodium orthovanadate (V)) at days 2 and 3. Total protein was dissolved in 1× Laemmli buffer, separated on a 10% SDS polyacrylamide gel, and transferred to a polyvinylidene fluoride membrane (Immobilon-P, Millipore). The membrane was washed with Tris-buffered physiological saline with 0.05% Tween 20 (TBS-T) and blocked with TBS-T containing 3% skim milk at room temperature for 1 hour. The membrane was incubated with any of anti-Erk1/2 (#4696, Cell Signaling), anti-phosphorylated Erk1/2 (#4370, Cell Signaling), or anti-phosphorylated JNK1/2/3 (#4668, Cell Signaling) antibody (diluted at 1:1000) at 4° C. overnight. The membrane was washed with TBS-T for 10 minutes three times and incubated with […] secondary antibody conjugated to horseradish peroxidase (HRP, GE Healthcare, 1:6000) at room temperature for 1 hour. The blot was detected with Amersham ECL Western blotting detection reagent (GE Healthcare) and quantified with ImageJ program (http://imagej.nih.gov/ij/index.html).

[1] = tested on: Bdnf, Ngf, Ntf4, Ntrk1, Ntrk2, Map2, Mapt, Gap43; test: Mouse sciatic nerve autologous transplantation model: mRNA in sciatic nerve segment; format: in vivo; conditions: sciatic nerve segment distal to the distal transection site, 8 weeks after surgery
Text: Adult male C57BL/6J mice (8 weeks old; 19.5-22.0 g) were purchased from Charles River. The mice were anesthetized with isoflurane and underwent gluteal muscle incision under a sterile condition to expose the sciatic nerve in the left leg. The sciatic nerve was cut at the following two sites (1) and (2): (1) the site 3 mm distal to the first bifurcation of biceps femoris (hereinafter referred to as proximal transection site) (2) the site 3 mm distal to the proximal transection site (hereinafter referred to as distal transection site) The excised nerve segment with a length of 3 mm was confirmed to be completely cut at the two sites. The perineurium was sutured with nylon thread (10-0 black) at the proximal transection site and the distal transection site under a microscope. The remaining thread was used as a marker for finding the nerve transection site in the sacrifice of the mice. In order to reduce DMSO toxicity, a solution of 60 mg/mL zonisamide in 100% DMSO was prepared and the solution was diluted in olive oil to give a solution of 3 mg/mL zonisamide in 5% DMSO. The control solution (5% DMSO) or zonisamide (3 mg/mL×about 0.2 mL) at 30 mg/kg/day was administered to the stomach using a disposable probe needle (flexible type, Fuchigami) once a day for 1 to 8 weeks from the end of surgery until sacrifice. Myelin sheath formation in the sciatic nerve was analyzed in six mice in each group. One week after the sciatic nerve autologous transplantation, the sciatic nerve was transected at “the proximal transection site” and “the site 3 mm distal to the distal transection site” to excise a nerve segment with a length of 6 mm. Subsequently, the nerve segment was fixed in 2% paraformaldehyde/2.5% glutaraldehyde in 0.2 mol/L sodium cacodylate buffer pH 7.3 overnight, treated with 2% osmium tetroxide for 3 hours, and dehydrated in ethanol. After epon embedding, a semithin section (with a thickness of 1 μm) was cut at the position 0.7 mm distal to the distal transection site, stained with alkaline Toluidine blue (Sigma), and examined under a microscope (FSX100, Olympus). The number and area of myelinated axons in the sciatic nerve were manually measured using ImageJ software in a blinded fashion. Eight weeks after sciatic nerve autologous transplantation, the entire gastrocnemius muscle and a sciatic nerve segment between the distal transection site and the site 3 mm distal to the distal transection site were isolated for total RNA extraction. Similar sciatic nerve segment was also isolated from the hindlimb without transected sciatic nerve. The mRNA expression levels of Bdnf, Ngf, Ntf4, Ntrk1, Ntrk2, Map2, Mapt, Gap43, Chrne, Colq, and Rapsn were quantified in a manner similar to Example 5.

## NS(=O)(=O)Cc1noc2ccccc12 [Zonisamide, 3-sulfamoylmethyl-1,2-benzisoxazole]
JNK1/2/3
  phosphorylation level of JNK1/2/3: did not affect
[1]
  expression level of Bdnf: unchanged
  gene expression level of Ngf: increased
  gene expression level of Ntf4: increased
  mRNA level of Gap43: elevated
  mRNA level of Map2: elevated
  mRNA level of Mapt: elevated
  mRNA level of Ntrk1: increased
  mRNA level of Ntrk2: increased
